The results in this text go back to paper PMC9769880, “Diverse Sensory Repertoire of Paralogous Chemoreceptors Tlp2, Tlp3, and Tlp4 in Campylobacter jejuni” (Microbiology Spectrum, 2022).

Experiment [1] relates to Tlp3. The experiment is classed as cell-based, C. jejuni 11168-O. The procedure: The biological relevance of the binding specificities of the Tlp2,3,4 cluster was assessed by examining chemotactic responses of C. jejuni 11168-O tlp2, tlp3, and tlp4 wild-type (WT) and mutant strains using a nutrient-depleted chemotaxis assay. All ligands, with the exception of lysine and cysteine, interacted with Tlp2 and Tlp4 as attractants (Table 1), showing an ~1- to ~2-log decrease (P < 0.05) in migration toward the ligand compared to the WT strain.
Chemotaxis assays—the nutrient-depleted chemotaxis assay and the modified hard agar plug assay (tHAP)—were performed as previously described ([11], [34]). The chemotactic responses of all isogenic strains were compared to that of the C. jejuni 11168-O wild-type strain to distinguish between chemoattractants and chemorepellents. For the nutrient-depleted chemotaxis and modified hard agar plug (tHAP) assays, all differences were calculated as changes on a log10 scale. Controls were provided by using nonmotile (C. jejuni 81116 flaAB) and nonchemotactic (C. jejuni NCTC 11168 cheY) mutants ([69]) and mucin as negative and positive controls ([10]).

Experiment [2] has as its target T1, Tlp2 (Campylobacter jejuni, UniProt Q0PBZ3). Briefly: biochemical. The experiment is classed as binding. To be noted: read-out: Tlp2 Affinity. The method, then: (§1) His-tagged proteins (Tlp2, -3, and -4) were prepared as previously described ([11]) DNA segments encoding the periplasmic sensory domains (33 to 286 amino acids) of Tlp2 and (38 to 297 amino acids) of Tlp4 were amplified (see Table S7), ligated into pGEM-T Easy (Promega) and subcloned into pET-19b (Novagen) (see Table S6). Recombinant proteins were expressed in E. coli BL21(DE3) using 1 mM IPTG (isopropyl-β-D-thiogalactopyranoside) and purified using His-select-nickel chromatography as described previously ([8], [11]). The purity of the proteins was confirmed by SDS-PAGE and Western blot analysis with anti-His antibodies (Bio-Rad). Protein concentrations were determined using a NanoDrop spectrophotometer (Thermo Fisher).
(§2) Surface plasmon resonance (SPR) experiments were performed as described previously ([10], [11]) with the following modifications. Briefly, purified proteins were diluted to 0.15 μM in sodium acetate (pH 4.0) and immobilized onto an active flow cell of a CM5 sensor chip with a flow rate of 5 μL/min for 7 min of contact time using a standard amine coupling protocol. Immobilized protein levels for all three proteins ranged from 6028.3 to 9779.3 response units (RU) providing a minimum expected response maximum (RMax) between 20 and 50 RU for the small molecules tested. […] All ligands were prepared in PBS (pH 7.2) and serially diluted from 0.2 to 0.0125 mM. A 10-min dissociation period was allocated after the introduction of each analyte. SPR experiments were performed in single-cycle kinetics mode using the BIAcore S200 biosensor system (Cytiva) at 25°C in PBS (pH 7.2) at a flow rate of 30 μL/min. The equilibrium dissociation constant (KD) for each analyte was determined using BIAcore S200 Evaluation software with a report point 4 s after the injection stop to account for the bulk transfer of the small molecule against a large amount of immobilized protein (as shown in Fig. S5).

Experiment [3] addresses T2, Tlp4 (Campylobacter jejuni, UniProt Q0PBP3). Nature of the experiment: biochemical. Format: binding. The settings on record: read-out: Tlp4 Affinity. The method, then: as §1, §2
Experiment [4] addresses T3, Tlp3 (Campylobacter jejuni, UniProt Q0P864). Briefly: STD NMR spectroscopy of arginine in complex with Tlp3. The experiment is classed as binding. The settings on record: 283K, 600.13 MHz; H3/H3′ and H5/H5′. The method, then:
STD NMR experiments were performed as previously described in ([10]). […] A control sample was prepared in an identical manner without the addition of Tlp3. All NMR experiments were performed using 3-mm NMR tubes on a Bruker Avance 600 MHz spectrometer equipped with a 5-mm TXI probe with triple-axis gradients at 283K without sample spinning. ^1H NMR spectra were acquired with 32 scans and a 2-s relaxation delay over a spectral width of 6,000 Hz. Solvent suppression of the residual HDO peak was achieved by using a continuous low-power presaturation pulse during the relaxation delay. For all STD NMR experiments, the protein was saturated at −0.5 ppm in the aliphatic region of the spectrum and off-resonance at 33 ppm with a cascade of 40 selective Gaussian-shaped pulses of 50-ms duration (50 dB), which correlates to a strength of 190 Hz. A 100-μs delay between each soft pulse was applied, resulting in a total saturation time of ~2 s 2 K scans were acquired per sample. Data were obtained with interspersed acquisition of pseudo-two-dimensional on-resonance and off-resonance spectra in order to minimize the effects of temperature and magnet instability. On- and off-resonance spectra were processed separately, and the final STD NMR spectrum was obtained by subtracting the individual on- and off-resonance spectra, resulting in low-subtraction artifacts.

For a further experiment, the system named is WT Tlp3^LBD. Briefly: SPR competition assay (A-B-A inject). The experiment is classed as binding, Campylobacter jejuni. To be noted: 15 seconds after injection-B; glucose 300 µM, fucose 300 μM, malic acid 200 μM. The procedure:
. Competition A-B-A analyses determine the specificity of the potential ligand-binding site preferences of WT Tlp3^LBD. The bound protein is saturated with the first analyte (A), followed by the introduction of a second analyte (B); the assay is designed to show whether a cumulative response is observed after the second analyte (B) is added. A cumulative response indicates two independent binding sites, whereas the lack of a cumulative response indicates a single site where ligands compete for binding, i.e., when analyte A occupies a ligand binding site, analyte B cannot bind. […] All response data were normalized to a 100-Da molecular weight for each analyte, allowing direct comparison of the responses. Both actual RU values and theoretical values are recorded for comparison.
Figure S6. […] A) Injections are […]
at 300 μM for 60 seconds). Final responses units (RU) of injections are recorded (indicated by dashed vertical […]
81 at 15 s econds after injection- B and l fu cose […]
and fucose were compet ed was 4.4 RU ± 0.46. As this value sits be low 5 RU, it indicates direct competition for […]
Final respons es units (RU) of injections ar e re cor ded (indicated […]
As this value sits between
5.07- 13.5 RU, it indicates direct competition for the same site with glucos e replacing some of the bound malic acid during the 60 second injection- B.

Experiment [5] concerns the target T1, Tlp2. Format: binding. The settings on record: yes/no binding. The method, then:
(§3) Glycan (>400 monosaccharides or complex glycans) and small molecule arrays containing amino acids and salts were performed as described previously by Day et al. ([67]). Briefly, 1 μg of purified recombinant protein was complexed with anti-His antibody (Cell Signaling Technology) and rabbit anti-mouse/goat anti-rabbit Alexa 555-IgG (Thermo Scientific) at a molar ratio of 1:0.5:0.25 and then incubated on the array for […] in phosphate-buffered saline (PBS). The array slides were scanned at 488/520 nm and analyzed using InnoScan 1100 with MAPIX software. All arrays were performed in triplicate with a total of 12 data points for each glycan tested; the complete data set and MIRAGE (i.e., minimum information regarding a glycomics experiment) results are shown in Tables S3 and S8.
(§4) Table S8 - Supplementary glycan microarray document based on M IRAGE guidelines. D O I:
(§5) Classification Guidelines
(§6) 1. Sample: Glycan Binding Sample
(§7) Origin: Helicobacter pylori SS1; produced as a recombinant His - tagged protein in E.
(§8) The preparation of Tlp2,3, and 4 is explained in the Materials and Methods section:
(§9) Expression and purification of the periplasmic domain of Tlp2,3, and 4.
(§10) Sample Sample is a His Tagged protein containing only the periplasmic receptor domain of the modifications full length Tlp2,3, and 4transmembrane protein.
(§11) Please see Materials and Methods: Tlps 2/3/4 bind to a range of ligands, including […]
(§12) Proteins were complexed with mouse anti- his antibody, with secondary and tertiary AlexaFluor555 antibodies (rabbit anti-mouse, goat anti-rabbit) at a molar ratio of 4:2:1.
(§13) The protein/antibody complex was incubated on ice for 10 mins prior to placing on the Assay protocol array. Arrays were performed with 1 µg of complexed protein incubated on the array for 20 min. Arrays were then washed 3 times in Array PBS (PBS + 2mM MgCl2 + 2mM CaCl2) then dried by centrifugation for 3 min at 300 x g . Scanning was performed us ing an Innopsys InnoScan 1100AL and analyzed using Mapix (Innopsys). Yes/no binding was determined by six positive replicate spots in three replicate experiments. Positive […]
(§14) Glycan Glycans in this study are listed in Table S2 and is a published library in doi:
(§15) Glycans were prepared in one of two ways for printing:
(§16) Glycan 1. Glycans (with IDs in number/letter format; e.g. 1A, 4C, 7K) were sourced modifications commercially from Dextra Laboratories, Elicityl and Carbosythn and were made into glycoamines using the protocol published in Day et al 2009 (doi:
(§17) Glycan arrays: We only use glycan arrays as a yes/no binding tool. Due to this we look only at binding that is unambiguously above background vs lack of binding above background. Average background + 3x standard deviation of the background of 20 sets of 4 spots of DMF:DMSO only spots is applied to determine if binding observed is […]
(§18) Only spots with values equal to or greater than this value were considered as binding from data of any tested slide. These values are slide […]
(§19) Data Small molecule arrays: We only use amino acid arrays as a yes/no binding tool. Due interpretation to this we look only at binding that is unambiguously above background vs lack of binding above background. Average background + 3x standard deviation of the background of 6 spots of PBS + 2% glycerol only spots is applied to determine if […]
(§20) Only spots with values equal to or greater than this value were considered as binding from data of any tested slide. These values are slide dependent. […]

The target in experiment [6] is T2, Tlp4. Format: binding. To be noted: yes/no binding. The procedure: as §3, §4, §5, §6, §7, §8, §9, §10, §11, §12, §13, §14, §15, §16, §17, §18, §19, §20
Experiment [7] concerns the target T3, Tlp3. Briefly: Glycan/small molecule arrays with Tlp3. To be noted: yes/no binding. The method, then:
as §3, §4, §5, §6, §7, §8, §9, §10, §11, §12, §13, §14, §15, §16, §17, §18, §19, §20

Another experiment concerns the target Tlp3^LBD W151A (Campylobacter jejuni, UniProt Q0P864, W151A). Briefly: biochemical.
In a further experiment the target is Tlp3^LBD D196A (Campylobacter jejuni, UniProt Q0P864, D196A). Nature of the experiment: biochemical.
Chain of Tlp3^LBD D196A (Q0P864 41-290 D196A): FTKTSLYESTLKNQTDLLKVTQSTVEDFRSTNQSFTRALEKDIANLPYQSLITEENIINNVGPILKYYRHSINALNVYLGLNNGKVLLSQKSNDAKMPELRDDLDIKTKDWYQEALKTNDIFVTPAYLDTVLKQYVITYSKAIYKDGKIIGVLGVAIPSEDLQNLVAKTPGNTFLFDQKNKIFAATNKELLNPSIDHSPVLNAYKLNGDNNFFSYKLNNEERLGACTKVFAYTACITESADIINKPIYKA
A further experiment concerns the target Tlp3^LBD D170A (Campylobacter jejuni, UniProt Q0P864). Nature of the experiment: biochemical.
The next experiment concerns the target Tlp3^LBD K149A (Campylobacter jejuni, UniProt Q0P864, K149A). Nature of the experiment: biochemical.
The target in experiment [8] is T3, Tlp3. Briefly: biochemical. The experiment is classed as binding. The procedure: as §1, with “The purity of the proteins was confirmed by SDS-PAGE and Western blot analysis with anti-His antibodies (Bio-Rad).” left out
Surface plasmon resonance (SPR) experiments were performed as described previously ([10], [11]) with the following modifications. […] All ligands were prepared in PBS (pH 7.2) and serially diluted from 0.2 to 0.0125 mM. A 10-min dissociation period was allocated after the introduction of each analyte. SPR experiments were performed in single-cycle kinetics mode using the BIAcore S200 biosensor system (Cytiva) at 25°C in PBS (pH 7.2) at a flow rate of 30 μL/min. The equilibrium dissociation constant (KD) for each analyte was determined using BIAcore S200 Evaluation software with a report point 4 s after the injection stop to account for the bulk transfer of the small molecule against a large amount of immobilized protein (as shown in Fig. S5).

In another experiment the test system is Δtlp2,3,4 triple mutant. Format: cell-based. The settings on record: compared with the other mutants.
Another experiment has as its target Tlp3^LBD D169A (Campylobacter jejuni, UniProt Q0P864, D169A). Briefly: biochemical.
Experiment [9] deals with C. jejuni 11168-O tlp2, tlp3, and tlp4 mutant strains. The experiment is classed as cell-based. The settings on record: positive control.
The mark [10] stands for this setting: SPR KD, mean ± SD, NB = no binding.

Like-named read-outs stand apart in the source and are kept apart here.

T2 sequence (Q0PBP3 entry or part of it): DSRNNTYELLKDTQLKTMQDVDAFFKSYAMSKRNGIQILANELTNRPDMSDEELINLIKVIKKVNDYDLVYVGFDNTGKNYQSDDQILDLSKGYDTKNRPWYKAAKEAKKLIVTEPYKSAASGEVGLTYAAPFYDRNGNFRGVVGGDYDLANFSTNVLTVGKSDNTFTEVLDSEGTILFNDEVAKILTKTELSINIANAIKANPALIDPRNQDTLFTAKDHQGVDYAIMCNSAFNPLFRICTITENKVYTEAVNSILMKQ
T3 sequence (Q0P864 entry or part of it): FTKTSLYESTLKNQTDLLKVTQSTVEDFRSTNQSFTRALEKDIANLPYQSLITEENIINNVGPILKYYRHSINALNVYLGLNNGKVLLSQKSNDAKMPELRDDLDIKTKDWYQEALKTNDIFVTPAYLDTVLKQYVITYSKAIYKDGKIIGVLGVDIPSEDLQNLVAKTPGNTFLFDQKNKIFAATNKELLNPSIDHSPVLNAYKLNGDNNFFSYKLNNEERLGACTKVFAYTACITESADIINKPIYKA
T1 sequence (Q0PBZ3 entry or part of it): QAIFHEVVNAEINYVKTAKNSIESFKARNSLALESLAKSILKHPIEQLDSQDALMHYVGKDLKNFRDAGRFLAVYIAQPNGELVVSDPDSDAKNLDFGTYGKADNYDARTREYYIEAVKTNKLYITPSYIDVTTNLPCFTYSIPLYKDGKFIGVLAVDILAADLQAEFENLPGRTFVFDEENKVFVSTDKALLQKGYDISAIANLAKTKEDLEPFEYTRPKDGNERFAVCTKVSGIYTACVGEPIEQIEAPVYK
Chain of Tlp3^LBD W151A (Q0P864 41-290 W151A): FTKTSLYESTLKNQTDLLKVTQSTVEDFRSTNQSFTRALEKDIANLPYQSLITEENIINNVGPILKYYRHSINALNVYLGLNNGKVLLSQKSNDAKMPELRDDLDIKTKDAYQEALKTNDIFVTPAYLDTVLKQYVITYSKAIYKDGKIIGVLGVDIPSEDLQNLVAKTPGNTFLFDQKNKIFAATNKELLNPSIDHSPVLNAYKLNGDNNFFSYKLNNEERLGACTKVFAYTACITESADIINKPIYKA
Chain of Tlp3^LBD D169A (Q0P864 41-290 D169A): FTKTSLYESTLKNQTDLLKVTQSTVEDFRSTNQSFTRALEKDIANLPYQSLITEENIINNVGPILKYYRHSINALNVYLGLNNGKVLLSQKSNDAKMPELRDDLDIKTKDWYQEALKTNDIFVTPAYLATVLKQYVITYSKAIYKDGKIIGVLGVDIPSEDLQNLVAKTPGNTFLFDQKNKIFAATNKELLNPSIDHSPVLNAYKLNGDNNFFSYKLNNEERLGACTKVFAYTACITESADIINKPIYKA
Chain of Tlp3^LBD K149A (Q0P864 41-290 K149A): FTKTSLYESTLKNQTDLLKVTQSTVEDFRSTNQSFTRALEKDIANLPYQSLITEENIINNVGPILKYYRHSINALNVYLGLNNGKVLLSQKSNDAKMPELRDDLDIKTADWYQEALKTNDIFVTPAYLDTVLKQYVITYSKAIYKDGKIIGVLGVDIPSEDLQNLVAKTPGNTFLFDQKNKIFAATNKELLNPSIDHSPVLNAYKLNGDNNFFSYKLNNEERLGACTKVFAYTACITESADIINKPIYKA
Chain of Tlp3^LBD D170A (Q0P864 41-290 T170A): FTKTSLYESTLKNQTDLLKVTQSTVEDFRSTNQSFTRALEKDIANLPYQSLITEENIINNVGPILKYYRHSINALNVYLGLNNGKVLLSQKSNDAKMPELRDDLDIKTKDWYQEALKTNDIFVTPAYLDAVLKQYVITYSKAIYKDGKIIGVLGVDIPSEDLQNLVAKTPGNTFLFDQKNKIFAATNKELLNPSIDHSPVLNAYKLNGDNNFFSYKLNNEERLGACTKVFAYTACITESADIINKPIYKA

As for `N=C(N)NCCC[C@H](N)C(=O)O` [Arginine], in the experiment on Tlp3 [1], the “Tlp3 CR (chemoresponse)” value was “R”. Further, the Kd on Tlp2 [2] and on Tlp4 [3] was over 200 µM throughout. In addition, on Tlp3 [4], the “saturation transfer (STD NMR)” value is recorded as “Strong saturation transfer”.
On to `OC[C@H]1OC(O)[C@H](O)[C@@H](O)[C@@H]1O` (some centres unmarked) [Glucose], for which, in the experiment with WT Tlp3^LBD, the “SPR response of single analyte” value came to 5.07 RU. Besides, the figures for the Kd at Tlp2 [2] (setting [10]) and at Tlp4 [3] (setting [10]) were 18.1 ± 2.2 µM and 18.3 ± 1.1 µM, respectively. For the same compound, at Tlp2 [5], the “binding to Tlp2 on glycan/small molecule array” value was “interacted”. On Tlp4 [6], the “binding to Tlp4 on glycan/small molecule array” value is given as “interacted”. Further, the “binding to Tlp3 on glycan/small molecule array” value on Tlp3 [7] was “interacted”.
On to `c1ncc2nc[nH]c2n1` [Purine], for which the Kd at Tlp2 [2] (setting [10]) amounted to 5.4 ± 1.1 µM; on Tlp4 [3] (setting [10]), 1.2 ± 0.7 µM; on Tlp3^LBD W151A it was 36.1 ± 15.7 µM; on Tlp3^LBD D196A it was 35.8 ± 1.5 µM; on Tlp3^LBD D170A, 20.6 ± 4 µM; at Tlp3^LBD K149A, 41.9 ± 24 µM. Further, the results for the Kd on Tlp3 [8] and at Tlp3^LBD D169A were 37.2 ± 17.4 µM and 15.7 ± 6.6 µM, respectively. In addition, the “binding to Tlp2 on glycan/small molecule array” value on Tlp2 [5] was “bound”. Also, at Tlp4 [6], the “binding to Tlp4 on glycan/small molecule array” value was “bound”. Moreover, the “migration toward ligand, Δtlp2,3,4 triple mutant” value in the experiment on Δtlp2,3,4 triple mutant is reported as “greatest reduction in migration”. Besides, the “binding to Tlp3 on glycan/small molecule array” value on Tlp3 [7] is recorded as “bind specifically”.
mucin: the “migration toward control ligand in mutants” value in [9] is reported as “not affected”.
